Legend:
[1] = test system: Huh7 cells; assay: mRNA and protein expression of miR-33 target genes in transfected Huh7 cells; format: cell-based; conditions: for CROT, CPT1a, HADHB, AMPKα, SIRT6, and IRS2 protein expression: to a similar extent for miR-33a and miR-33b
Procedure: Total RNA was isolated using TRIzol reagent (Invitrogen) according to the manufacturer's protocol. For mRNA quantification, cDNA was synthesized using Taqman RT reagents (Applied Biosystems), following the manufacturer's protocol. Quantitative real-time PCR was performed in triplicate using iQ SYBR green Supermix (BioRad) on iCycler Real-Time Detection System (BioRad). The mRNA level was normalized to GAPDH as a house keeping gene. The primers sequences used were: […]
(§1) HepG2 and Huh7 cells were transfected with 40 nM miRIDIAN miRNA mimics (miR-33) or 60 nM miRIDIAN miRNA inhibitors (anti-miR-33) (Dharmacon) using Oligofectamine (Invitrogen). All experimental control samples were treated with an equal concentration of a nontargeting control mimic sequence (CM) or an inhibitor negative control sequence (CI) to control for nonsequence-specific effects in miRNA experiments

[2] = test system: 3′ UTR of Crot, Cpt1a, Hadhb, Ampkα, and Irs2; assay: 3′ UTR luciferase reporter assay, Crot, Cpt1a, Hadhb, Ampkα, Irs2; format: cell-based; conditions: only modest differences between miR-33a and miR-33b
Excerpt: (§2) cDNA fragments corresponding to the entire 3′ UTR of carnitine O-octaniltransferase (Crot), carnitine palmitoyltransferase 1A (Cpt1a), hydroxyacyl-CoAdehydrogenase (Hadhb), AMP kinase subunit-α (Ampkα), and insulin receptor substrate 2 (Irs2), citrate synthase (Cs), 3-hydroxy-3-methylglutaryl CoA (Hmgcr), and Sirtuin 6 (Sirt6) were amplified by RT-PCR from total RNA extracted from HepG2 cells with XhoI and NotI linkers. The PCR products were directionally cloned downstream of the Renilla luciferase ORF of the ψCHECK2 vector (Promega) that also contains a constitutively expressed firefly luciferase gene, which is used to normalize transfections. Point mutations in the seed region of predicted miR-33 sites within the 3′ UTR of Crot, Cpt1a, Hadhb, Ampkα, and Sirt6 were generated using Multisite-Quickchange (Stratagene) according to the manufacturer's protocol. All constructs were confirmed by sequencing. COS-7 cells were plated into 12-well plates (Costar) and cotransfected with 1 μg indicated 3′ UTR luciferase reporter vectors and the miR-33 mimic or negative control mimic (CM) (Dharmacon) using Lipofectamine 2000 (Invitrogen). Luciferase activity was measured using the Dual-Glo Luciferase Assay System (Promega). […]

[3] = test system: Huh7 cells; assay: Fatty acid β-oxidation assay ([14C]-oleate); format: cell-based
Procedure: HepG2 and Huh7 cells were transfected with miR-33 (20 nM), anti-miR-33 (40 nM), or negative control (con-miR and con-inh, respectively), and the rate of fatty acid oxidation was determined. Cells were cultured in the presence of [^14C]-oleate (Perkin-Elmer)-BSA complex, and the released [^14C]-carbon dioxide was trapped for 1 h at 37° C. onto filter paper soaked in 100 mM sodium hydroxide. The rate of β-oxidation was calculated as the amount of trapped [^14C]-carbon dioxide in relative units produced per milligram of protein per hour. Experiments were performed in triplicate in p60 plates and were repeated at least three times.

[4] = test system: Huh7 cells; assay: AKT and ERK phosphorylation after insulin stimulation; format: cell-based
Procedure: Cell were lysed in ice-cold buffer containing 50 mM Tris-HCl, pH 7.5, 125 mM NaCl, 1% NP-40, 5.3 mM NaF, 1.5 mM NaP and 1 mM orthovanadate, 175 mg/ml octylglucopyranoside and 1 mg/ml of protease inhibitor cocktail (Roche) and 0.25 mg/ml AEBSF (Roche). Cell lysates were rotated at 4° C. for 1 h before the insoluble material were removed by centrifugation at 12000×g for 10 min. After normalizing for equal protein concentration, cell lysates were resuspended in SDS sample buffer before separation by SDS-PAGE. Following overnight transfer of the proteins onto nitrocellulose membranes. The membranes were probed with the indicated antibodies, and protein bands were visualized using the Odyssey Infrared Imaging System (LI-COR Biotechnology). Densitometry analysis of the gels was carried out using ImageJ software from the NIH (http://rsbweb.nih.gov/ij/).
as §1

[5] = test system: Huh7 cells; assay: 2-Deoxyglucose uptake; format: cell-based
Procedure: Huh7 cells were transfected with miR-33b (20 nM) or negative control (Con-miR) for 48 h. Then, cells were cultured in serum-free media for 24 h, washed two times, and placed into warmed buffer for 2 h before glucose uptake studies. Insulin (100 nM) was added for 10 min. After this, […] 2-deoxyglucose (2-DOG) was added to each well (Perkin-Elmer). After 5 min, 5% unlabeled glucose was added to stop the reaction. Cells were then washed two times in 5% glucose and lysed by the addition of 0.5% SDS; 3 mL Ultima Gold scintillant (Packard) were added, samples were vortexed, and radioactivity was counted.

[6] = test system: Sirt6 3′ UTR; assay: 3′ UTR luciferase reporter assay, Sirt6; format: cell-based, human
Excerpt: as §2

[7] = test system: Huh7 cells; assay: Triglyceride content and synthesis in Huh7 cells incubated with oleate and starved; format: cell-based; conditions: oleate 24 h then starved 24 h
Procedure: The accumulation of neutral lipids and lipid droplet formation was next evaluated tin Huh7 cells incubated with oleate for 24 h and then starved for the next 24 h. […] The increase in triglyceride content was independent of changes in triglyceride synthesis rates.

Substance	CROT, CPT1a, HADHB, AMPKα, SIRT6, and IRS2 protein expression [1]	3′ UTR activity of Crot, Cpt1a, Hadhb, Ampkα, and Irs2 [2]	SIRT6 mRNA and protein levels [1]	miR-33b expression after transfection, increase [1]	mRNA levels of CROT, CPT1a, HADHB, AMPKα, and IRS2 ([1]; anti-miR-33b: CROT, CPT1a, AMPKα, IRS2)	miR-33b expression, fold increase [3]	rate of fatty acid β-oxidation [3]	AKT and ERK phosphorylation [4]	insulin-induced 2-deoxyglucose (2-DOG) uptake [5]	3′ UTR activity of Sirt6 [6]	triglycerides (TAG) accumulation [7]
miR-33a: miR-33a transfected into Huh7 cells; human miR-33a sequence GUGCAUUGUAGUUGCAUUGCA (SEQ ID NO:32) (listed as RNA, chemistry not given here; listed as Homo sapiens)	inhibited	significantly inhibited									
miR-33b: miR-33b transfected into Huh7 cells; human miR-33b sequence GUGCAUUGCUGUUGCAUUGC (SEQ ID NO:34) (listed as RNA, chemistry not given here; listed as Homo sapiens)	inhibited	significantly inhibited	significantly inhibited	32 fold	significantly inhibited	27 fold	markedly reduced	reduced	reduced	markedly repressed	accumulated more triglycerides

Reference: US20120053227A1, “miR-33 INHIBITORS AND USES THEREOF” (New York University, priority 2010, published 2012)
